In US4820694A, “Modifications of 3-O-demethylmycinose in macrocin and lactenocin” (priority 1986, dated 1989):
≈ marks a conversion by molar mass, not a printed value. Read-outs that look alike come from different tables or passages of the source.

Tests used:
[1] = system: Escherichia coli EC14; experiment: standard agar-dilution MIC assay; assay type: cell-based
Experimental: (§1) The MIC's in Table III were determined by standard agar-dilution assays. The MIC's in Table IV were obtained using conventional brothdilution microtiter tests.

[2] = system: Haemophilus influenzae 76; experiment: standard agar-dilution MIC assay; assay type: cell-based; conditions: Haemophilus influenzae, 76
Experimental: as §1

[3] = system: Haemophilus influenzae C.L.; experiment: standard agar-dilution MIC assay; assay type: cell-based; conditions: Haemophilus influenzae
Experimental: as §1

[4] = system: Klebsiella pneumoniae X68; experiment: standard agar-dilution MIC assay; assay type: cell-based; conditions: Klebsiella pneumoniae, X68
Experimental: as §1

[5] = system: Pseudomonas aeruginosa X239; experiment: standard agar-dilution MIC assay; assay type: cell-based; conditions: Pseudomonas aeruginosa, X239
Experimental: as §1

[6] = system: Staphylococcus aureus V41; experiment: standard agar-dilution MIC assay; assay type: cell-based; conditions: Staphylococcus aureus, V41
Experimental: as §1

[7] = system: Staphylococcus aureus X1.1; experiment: standard agar-dilution MIC assay; assay type: cell-based; conditions: Staphylococcus aureus, X1.1
Experimental: as §1

[8] = system: Staphylococcus aureus X400; experiment: standard agar-dilution MIC assay; assay type: cell-based; conditions: Staphylococcus aureus, X400
Experimental: as §1

[9] = system: Staphylococcus epidermidis EP12; experiment: standard agar-dilution MIC assay; assay type: cell-based
Experimental: as §1

[10] = system: Staphylococcus epidermidis EPI1; experiment: standard agar-dilution MIC assay; assay type: cell-based; conditions: Staphylococcus epidermidis, EPI1
Experimental: as §1

[11] = system: Streptococcus Group D 9960; experiment: standard agar-dilution MIC assay; assay type: cell-based; conditions: GROUPD9960, read-out: MIC
Experimental: as §1

[12] = system: Streptococcus Group D X66; experiment: standard agar-dilution MIC assay; assay type: cell-based; conditions: read-out: MIC
Experimental: as §1

[13] = system: Streptococcus pyogenes C203; experiment: standard agar-dilution MIC assay; assay type: cell-based; conditions: Streptococcus pyogenes, C203
Experimental: as §1

[14] = system: Staphylococcus aureus S13E; experiment: microbe, parasite or virus in culture; assay type: cell-based; conditions: Staphylococcus aureus, S13E
Experimental: as §1

[15] = system: Streptococcus pneumoniae Park I; experiment: microbe, parasite or virus in culture; assay type: cell-based; conditions: Streptococcus pneumoniae
Experimental: as §1

[16] = system: Bordetella bronchiseptica; experiment: broth-dilution microtiter MIC test; assay type: cell-based; conditions: Bordetella bronchiseptica
Experimental: as §1

[17] = system: Mycoplasma gallisepticum 15E; experiment: broth-dilution microtiter MIC test; assay type: cell-based; conditions: Mycoplasmoides gallisepticum, 15E
Experimental: as §1

[18] = system: Mycoplasma gallisepticum 29C; experiment: broth-dilution microtiter MIC test; assay type: cell-based; conditions: Mycoplasmoides gallisepticum, 29C
Experimental: as §1

[19] = system: Mycoplasma gallisepticum 36H; experiment: broth-dilution microtiter MIC test; assay type: cell-based; conditions: Mycoplasmoides gallisepticum, 36H
Experimental: as §1

[20] = system: Mycoplasma hyorhinis 29E; experiment: broth-dilution microtiter MIC test; assay type: cell-based; conditions: Mycoplasma, 29E
Experimental: as §1

[21] = system: Pasteurella hemolytica 22C; experiment: broth-dilution microtiter MIC test; assay type: cell-based; conditions: Pasteurella, 22C
Experimental: as §1

[22] = system: Pasteurella hemolytica 23C; experiment: broth-dilution microtiter MIC test; assay type: cell-based; conditions: Pasteurella, 23C
Experimental: as §1

[23] = system: Pasteurella hemolytica 41D; experiment: broth-dilution microtiter MIC test; assay type: cell-based; conditions: Pasteurella, 41D
Experimental: as §1

[24] = system: Pasteurella multocida 17E; experiment: broth-dilution microtiter MIC test; assay type: cell-based; conditions: Pasteurella multocida, 17E
Experimental: as §1

[25] = system: Pasteurella multocida 22A; experiment: broth-dilution microtiter MIC test; assay type: cell-based; conditions: Pasteurella multocida, 22A
Experimental: as §1

[26] = system: Pasteurella multocida 40G; experiment: broth-dilution microtiter MIC test; assay type: cell-based; conditions: Pasteurella multocida, 40G
Experimental: as §1

[27] = system: Pasteurella multocida 60A; experiment: broth-dilution microtiter MIC test; assay type: cell-based; conditions: Pasteurella multocida, 60A
Experimental: as §1

[28] = system: Pasteurella multocida 68C; experiment: broth-dilution microtiter MIC test; assay type: cell-based; conditions: Pasteurella multocida, 68C
Experimental: as §1

[29] = system: Staphylococcus aureus 19C; experiment: broth-dilution microtiter MIC test; assay type: cell-based; conditions: Staphylococcus aureus, 19C
Experimental: as §1

[30] = system: Streptococcus sp. 19F; experiment: broth-dilution microtiter MIC test; assay type: cell-based; conditions: Streptococcus, SP.19F
Experimental: as §1

[31] = system: Pasteurella multocida; experiment: Pasteurella multocida infection in one-day-old chicks; assay type: in vivo; conditions: subcutaneously, 30 mg/kg × 2, 1 and 4 hours post-challenge
Experimental: Some of the formula 1 compounds have also shown in vivo antibacterial activity against infections induced by Gram-negative bacteria. Table VI summarizes the results of tests in which illustrative compounds were evaluated against a Pasteurella infection in one-day-old chicks. The compounds were administered by subcutaneous injection at a dosage of 30 mg/kg, 1 and 4 hours post-challenge of the chicks with Pasteurella multocida (0.1 ml of a 10^-4 dilution of a twenty-hour tryptose broth culture of an avian P. multocida given subcutaneously). In these tests, unless indicated otherwise, all non-medicated infected chicks died within 24 hours of Pasteurella challenge.
^a Administered subcutaneously; 30 mg/kg × 2

[32] = system: Mycoplasma synoviae 40A; experiment: broth-dilution microtiter MIC test; assay type: cell-based; conditions: Mycoplasmopsis synoviae, 40A
Experimental: as §1

[33] = system: Streptococcus pyogenes C203; experiment: protection of mice experimentally infected with S. pyogenes C203; assay type: in vivo; conditions: C203, sc, Subcutaneous, mice, mg/kg × 2, doses given 1 and 4 hours postinfection, read-out: ED50
In short: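 Activity is given as ED50, the mg/kg dose (×2) protecting half of the mice infected with S. pyogenes C203. Compound was dosed 1 and 4 h after infection.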

[34] = broth-dilution microtiter, read-out: MIC

## CCC1OC(=O)CC(O)C(C)C(OC2OC(C)C(OC3CC(C)(O)C(O)C(C)O3)C(N(C)C)C2OC(C)=O)C(CC=O)CC(C)C(=O)C=CC(C)=CC1COC1OC(C)C(OC(=O)Cc2ccccc2)C(O)C1OC (stereo not drawn) [Compound 9, 2'-O-Acetyl-4'"-O-phenylacetyl-macrocin]
[1]
  MIC: > 128 µg/mL
[2]
  MIC: 32 µg/mL (≈ 30.1 µM)
[3]
  MIC: 32 µg/mL (≈ 30.1 µM)
[4]
  MIC: > 128 µg/mL
[5]
  MIC: > 128 µg/mL
[6]
  MIC: 1 µg/mL (≈ 0.941 µM)
[7]
  MIC: 1 µg/mL (≈ 0.941 µM)
[8]
  MIC: 2 µg/mL (≈ 1.88 µM)
[9]
  MIC: 2 µg/mL (≈ 1.88 µM)
[10]
  MIC: 2 µg/mL (≈ 1.88 µM)
[11]
  MIC: 0.5 µg/mL (≈ 0.471 µM)
[12]
  MIC: 1 µg/mL (≈ 0.941 µM)
[13]
  MIC: 0.5 µg/mL (≈ 0.471 µM)
[14]
  MIC: 2 µg/mL (≈ 1.88 µM)
[15]
  MIC: 0.25 µg/mL (≈ 0.235 µM)
[16]
  MIC: > 50 µg/mL
[17]
  MIC: 12.5 µg/mL (≈ 11.8 µM)
[18]
  MIC: 0.78 µg/mL (≈ 0.734 µM)
[19]
  MIC: 12.5 µg/mL (≈ 11.8 µM)
[20]
  MIC: 1.56 µg/mL (≈ 1.47 µM)
[21]
  MIC: > 50 µg/mL
[22]
  MIC: > 50 µg/mL
[23]
  MIC: > 50 µg/mL
[24]
  MIC: > 50 µg/mL
[25]
  MIC: > 50 µg/mL
[26]
  MIC: > 50 µg/mL
[27]
  MIC: > 50 µg/mL
[28]
  MIC: > 50 µg/mL
[29]
  MIC: 3.12 µg/mL (≈ 2.94 µM)
[30]
  MIC: 1.56 µg/mL (≈ 1.47 µM)
[31]
  Number of Deaths/Number Treated: 10/10

## CCC1OC(=O)CC(O)C(C)C(OC2OC(C)C(O)C(N(C)C)C2OC(C)=O)C(CC=O)CC(C)C(=O)C=CC(C)=CC1COC1OC(C)C(OC(=O)COc2ccccc2)C(O)C1OC (stereo not drawn) [Compound 33, 2'-O-Acetyl-4"-O-phenoxyacetyl-lactenocin]
[1]; agar-dilution, read-out: MIC
  MIC: > 128 µg/mL
[2]; agar-dilution, Ampicillin-resistant strain, read-out: MIC
  MIC: 8 µg/mL (≈ 8.56 µM)
[3]; agar-dilution, Ampicillin-sensitive strain, read-out: MIC
  MIC: 8 µg/mL (≈ 8.56 µM)
[4]; agar-dilution, read-out: MIC
  MIC: > 128 µg/mL
[5]; agar-dilution, read-out: MIC
  MIC: > 128 µg/mL
[6]
  MIC: 1 µg/mL (≈ 1.07 µM)
[7]
  MIC: 1 µg/mL (≈ 1.07 µM)
[8]; agar-dilution, Methicillin-resistant strain, read-out: MIC
  MIC: 2 µg/mL (≈ 2.14 µM)
[10]
  MIC: 1 µg/mL (≈ 1.07 µM)
[11]
  MIC: 1 µg/mL (≈ 1.07 µM)
[12]
  MIC: 1 µg/mL (≈ 1.07 µM)
[13]
  MIC: 0.5 µg/mL (≈ 0.535 µM)
[14]
  MIC: 1 µg/mL (≈ 1.07 µM)
[15]; agar-dilution, read-out: MIC
  MIC: 0.25 µg/mL (≈ 0.268 µM)
[16]
  MIC: 50 µg/mL (≈ 53.5 µM)
[17]; [34]
  MIC: 12.5 µg/mL (≈ 13.4 µM)
[18]; [34]
  MIC: 0.39 µg/mL (≈ 0.418 µM)
[19]; [34]
  MIC: 12.5 µg/mL (≈ 13.4 µM)
[20]
  MIC: 3.12 µg/mL (≈ 3.34 µM)
[32]; [34]
  MIC: 0.39 µg/mL (≈ 0.418 µM)
[21]; [34]
  MIC: 12.5 µg/mL (≈ 13.4 µM)
[22]; [34]
  MIC: 12.5 µg/mL (≈ 13.4 µM)
[23]; [34]
  MIC: 12.5 µg/mL (≈ 13.4 µM)
[24]; broth-dilution microtiter, Bovine isolate, read-out: MIC
  MIC: 12.5 µg/mL (≈ 13.4 µM)
[25]; [34]
  MIC: 12.5 µg/mL (≈ 13.4 µM)
[26]; [34]
  MIC: 12.5 µg/mL (≈ 13.4 µM)
[27]; broth-dilution microtiter, Avian isolate, read-out: MIC
  MIC: 6.25 µg/mL (≈ 6.69 µM)
[28]; [34]
  MIC: 6.25 µg/mL (≈ 6.69 µM)
[29]
  MIC: 0.78 µg/mL (≈ 0.835 µM)
[30]; [34]
  MIC: 0.39 µg/mL (≈ 0.418 µM)
[33]
  ED50: 1.9 mg/kg
[31]
  Number of Deaths/Number Treated: 8/10

## CCC1OC(=O)CC(O)C(C)C(OC2OC(C)C(O)C(N(C)C)C2OC(C)=O)C(CC=O)CC(C)C(=O)C=CC(C)=CC1COC1OC(C)C(OC(=O)Cc2ccccc2)C(O)C1OC (stereo not drawn) [Compound 29, 2'-O-Acetyl-4"-O-phenylacetyl-lactenocin]
[1]
  MIC: > 128 µg/mL
[4]
  MIC: > 128 µg/mL
[5]
  MIC: > 128 µg/mL
[6]
  MIC: 1 µg/mL (≈ 1.09 µM)
[7]
  MIC: 1 µg/mL (≈ 1.09 µM)
[8]
  MIC: 1 µg/mL (≈ 1.09 µM)
[9]
  MIC: 1 µg/mL (≈ 1.09 µM)
[10]
  MIC: 1 µg/mL (≈ 1.09 µM)
[11]
  MIC: 1 µg/mL (≈ 1.09 µM)
[12]
  MIC: 1 µg/mL (≈ 1.09 µM)
[13]
  MIC: 0.5 µg/mL (≈ 0.545 µM)
[14]
  MIC: 1 µg/mL (≈ 1.09 µM)
[15]
  MIC: 0.25 µg/mL (≈ 0.272 µM)
[16]
  MIC: > 50 µg/mL
[17]
  MIC: 12.5 µg/mL (≈ 13.6 µM)
[18]
  MIC: 0.195 µg/mL (≈ 0.212 µM)
[19]
  MIC: 6.25 µg/mL (≈ 6.81 µM)
[20]
  MIC: 1.56 µg/mL (≈ 1.7 µM)
[32]
  MIC: 0.195 µg/mL (≈ 0.212 µM)
[21]
  MIC: 12.5 µg/mL (≈ 13.6 µM)
[22]
  MIC: 12.5 µg/mL (≈ 13.6 µM)
[23]
  MIC: 12.5 µg/mL (≈ 13.6 µM)
[24]
  MIC: 12.5 µg/mL (≈ 13.6 µM)
[25]
  MIC: 25 µg/mL (≈ 27.2 µM)
[26]
  MIC: 25 µg/mL (≈ 27.2 µM)
[27]
  MIC: 25 µg/mL (≈ 27.2 µM)
[28]
  MIC: 6.25 µg/mL (≈ 6.81 µM)
[29]
  MIC: 1.56 µg/mL (≈ 1.7 µM)
[30]
  MIC: 0.39 µg/mL (≈ 0.425 µM)
[31]
  Number of Deaths/Number Treated: 9/10
